How the values were obtained:
[1] = molecular target: PI3K/PI4K catalytic domain-containing protein (Cryptosporidium hominis, UniProt A0A0S4TH36)
[2] = molecular target: T1, Phosphatidylinositol 4-kinase (Cryptosporidium parvum (strain Iowa II), UniProt Q5CVD3); assay: PI(4)K enzymatic Assay
T1 sequence (Q5CVD3 whole entry): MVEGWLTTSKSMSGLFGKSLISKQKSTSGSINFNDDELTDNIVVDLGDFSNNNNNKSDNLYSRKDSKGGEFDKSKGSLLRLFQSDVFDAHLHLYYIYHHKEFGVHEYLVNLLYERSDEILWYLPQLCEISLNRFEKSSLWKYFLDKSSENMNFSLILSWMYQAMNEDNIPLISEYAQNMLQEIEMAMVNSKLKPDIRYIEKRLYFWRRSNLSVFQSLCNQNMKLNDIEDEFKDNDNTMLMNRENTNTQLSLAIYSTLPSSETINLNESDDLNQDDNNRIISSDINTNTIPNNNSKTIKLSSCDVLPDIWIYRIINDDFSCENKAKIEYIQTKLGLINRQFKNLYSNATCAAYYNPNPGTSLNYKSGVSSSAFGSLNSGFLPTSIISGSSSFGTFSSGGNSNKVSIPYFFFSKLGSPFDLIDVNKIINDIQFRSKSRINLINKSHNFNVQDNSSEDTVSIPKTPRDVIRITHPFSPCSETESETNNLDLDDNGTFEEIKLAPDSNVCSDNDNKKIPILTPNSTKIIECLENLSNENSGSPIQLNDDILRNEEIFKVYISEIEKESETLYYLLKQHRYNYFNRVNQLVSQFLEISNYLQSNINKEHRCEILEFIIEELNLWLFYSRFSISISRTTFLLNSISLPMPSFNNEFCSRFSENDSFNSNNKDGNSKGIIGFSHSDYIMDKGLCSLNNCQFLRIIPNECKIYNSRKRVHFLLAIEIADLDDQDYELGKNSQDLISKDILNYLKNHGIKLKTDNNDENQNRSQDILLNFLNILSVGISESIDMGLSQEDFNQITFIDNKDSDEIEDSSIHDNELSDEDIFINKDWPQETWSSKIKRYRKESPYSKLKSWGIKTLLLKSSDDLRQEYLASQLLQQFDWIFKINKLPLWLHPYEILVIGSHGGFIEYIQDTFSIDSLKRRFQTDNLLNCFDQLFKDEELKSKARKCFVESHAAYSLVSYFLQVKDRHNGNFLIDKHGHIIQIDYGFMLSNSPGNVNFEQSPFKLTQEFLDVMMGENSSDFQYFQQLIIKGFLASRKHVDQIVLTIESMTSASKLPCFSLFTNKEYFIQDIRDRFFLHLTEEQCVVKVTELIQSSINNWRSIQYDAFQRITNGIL
Text: Baculovirus expression and purification of C. parvum phosphatidylinositol 4-kinase: The full-length coding sequence of C. parvum PI(4)K (cgd8_4500, 1114 amino acids) was codon-optimized for baculovirus expression, synthesized and cloned into pFastBac-HTb (Invitrogen 10584-027) in frame with the amino-terminal polyhistidine tag using the BamHI and HindIII restriction sites. Recombinant pFastBacHTb-CpPI(4)K bacmid clones were generated by site-specific transposition in E. coli DH10Bac (Invitrogen 10361-012). The bacmid sequence was confirmed by direct DNA sequencing to confirm a lack of mutations across the whole gene. The subsequent steps for bacmid isolation, transfection and selection of the recombinant viruses were performed according to the manufacturer s protocol (Bac-to-Bac system # 10359, Invitrogen).SF9 cells, cultured in SF-900 III serum-free medium, were transfected with recombinant baculovirus at 1/200 (v/v) and incubated at 27 °C for 72^h. The pellets were collected after centrifugation and re-suspended in cell lysis buffer (20^mM Tris-HCl, pH^7.5, 300^mM NaCl, 1mM DTT, 20mM imidazole, 0.01% Triton X-100 and 1×^complete protease inhibitor cocktail without EDTA (Roche Diagnostics 04693116001)). The cell suspension was lysed by sonication and the clarified supernatant was loaded onto a 1^ml HisTrap affinity column (GE Healthcare) pre-equilibrated with buffer A (20^mM Tris-HCl, pH^7.5, 300^mM NaCl, 1mM DTT, 20mM Imidazole, and 1×^complete protease inhibitor cocktail without EDTA). The column was washed with buffer B (buffer A containing 45 mM imidazole) and the bound protein of interest was eluted with buffer C (buffer A with 90^mM imidazole). The fractions containing CpPI(4)K were pooled, concentrated using Amicon Ultra-15 and purified by a gel-filtration column (Hi-Load 26/60 Superdex 200, GE Healthcare) equilibrated with 20^mM Tris, pH^7.5, 300^mM NaCl, 1^mM DTT and 1×^protease inhibitor cocktail without EDTA. The concentrations of the purified protein (Mw 132.39 kda) was determined by using the protein molar extinction coefficient (ε280^nm = 133,810^M−1^cm−1). Aliquots were flash frozen in liquid nitrogen and immediately stored at −80 °C.PI(4)K enzymatic Assay: The CpPI(4)K enzymatic assay was performed as described earlier with a some modifications (McNamara et al., 2013). Briefly, L-α-phosphatidylinositol (Avanti Polar Lipid 840046), dissolved in 3% n-octylglucoside (Roche Diagnostics 10634425001), was used as the lipid substrate for the PI(4)K activity assay. CpPI(4)K was assayed using Transcreener ADP2 FP detection kit (BellBrook 3010) in a black, solid 384-well plate (Corning 3575). The final assay volume was 10^μl and contained 3^nM of the respective CpPI(4)K construct in 10^mM Tris, pH^7.5, 1^mM DTT, 3^μM ATP, 5^mM Mn2+, 0.05% Triton X-100 and 10^μM phosphatidylinositol/octylglucoside. The enzyme reaction was performed for 50 minutes at room temperature and was stopped by adding 10^μl of detection mix containing 1×^stop buffer (50mM HEPES, pH7.5, 400mM NaCl, 20mM EDTA, and 0.02% Brij-35), 2^nM AMP Alexa Fluor 633 tracer, and 20^μg^ml−1 ADP antibody. Fluorescence polarization measurements were performed on the Infinite M1000 plate reader (Tecan) with λex = 635^nm and λem = 680^nm (20-nm bandwidth). IC50 values were calculated using Graphpad Prism software.

PI3K/PI4K catalytic domain-containing protein, sequence (A0A0S4TH36 whole entry, the tested form may be a part): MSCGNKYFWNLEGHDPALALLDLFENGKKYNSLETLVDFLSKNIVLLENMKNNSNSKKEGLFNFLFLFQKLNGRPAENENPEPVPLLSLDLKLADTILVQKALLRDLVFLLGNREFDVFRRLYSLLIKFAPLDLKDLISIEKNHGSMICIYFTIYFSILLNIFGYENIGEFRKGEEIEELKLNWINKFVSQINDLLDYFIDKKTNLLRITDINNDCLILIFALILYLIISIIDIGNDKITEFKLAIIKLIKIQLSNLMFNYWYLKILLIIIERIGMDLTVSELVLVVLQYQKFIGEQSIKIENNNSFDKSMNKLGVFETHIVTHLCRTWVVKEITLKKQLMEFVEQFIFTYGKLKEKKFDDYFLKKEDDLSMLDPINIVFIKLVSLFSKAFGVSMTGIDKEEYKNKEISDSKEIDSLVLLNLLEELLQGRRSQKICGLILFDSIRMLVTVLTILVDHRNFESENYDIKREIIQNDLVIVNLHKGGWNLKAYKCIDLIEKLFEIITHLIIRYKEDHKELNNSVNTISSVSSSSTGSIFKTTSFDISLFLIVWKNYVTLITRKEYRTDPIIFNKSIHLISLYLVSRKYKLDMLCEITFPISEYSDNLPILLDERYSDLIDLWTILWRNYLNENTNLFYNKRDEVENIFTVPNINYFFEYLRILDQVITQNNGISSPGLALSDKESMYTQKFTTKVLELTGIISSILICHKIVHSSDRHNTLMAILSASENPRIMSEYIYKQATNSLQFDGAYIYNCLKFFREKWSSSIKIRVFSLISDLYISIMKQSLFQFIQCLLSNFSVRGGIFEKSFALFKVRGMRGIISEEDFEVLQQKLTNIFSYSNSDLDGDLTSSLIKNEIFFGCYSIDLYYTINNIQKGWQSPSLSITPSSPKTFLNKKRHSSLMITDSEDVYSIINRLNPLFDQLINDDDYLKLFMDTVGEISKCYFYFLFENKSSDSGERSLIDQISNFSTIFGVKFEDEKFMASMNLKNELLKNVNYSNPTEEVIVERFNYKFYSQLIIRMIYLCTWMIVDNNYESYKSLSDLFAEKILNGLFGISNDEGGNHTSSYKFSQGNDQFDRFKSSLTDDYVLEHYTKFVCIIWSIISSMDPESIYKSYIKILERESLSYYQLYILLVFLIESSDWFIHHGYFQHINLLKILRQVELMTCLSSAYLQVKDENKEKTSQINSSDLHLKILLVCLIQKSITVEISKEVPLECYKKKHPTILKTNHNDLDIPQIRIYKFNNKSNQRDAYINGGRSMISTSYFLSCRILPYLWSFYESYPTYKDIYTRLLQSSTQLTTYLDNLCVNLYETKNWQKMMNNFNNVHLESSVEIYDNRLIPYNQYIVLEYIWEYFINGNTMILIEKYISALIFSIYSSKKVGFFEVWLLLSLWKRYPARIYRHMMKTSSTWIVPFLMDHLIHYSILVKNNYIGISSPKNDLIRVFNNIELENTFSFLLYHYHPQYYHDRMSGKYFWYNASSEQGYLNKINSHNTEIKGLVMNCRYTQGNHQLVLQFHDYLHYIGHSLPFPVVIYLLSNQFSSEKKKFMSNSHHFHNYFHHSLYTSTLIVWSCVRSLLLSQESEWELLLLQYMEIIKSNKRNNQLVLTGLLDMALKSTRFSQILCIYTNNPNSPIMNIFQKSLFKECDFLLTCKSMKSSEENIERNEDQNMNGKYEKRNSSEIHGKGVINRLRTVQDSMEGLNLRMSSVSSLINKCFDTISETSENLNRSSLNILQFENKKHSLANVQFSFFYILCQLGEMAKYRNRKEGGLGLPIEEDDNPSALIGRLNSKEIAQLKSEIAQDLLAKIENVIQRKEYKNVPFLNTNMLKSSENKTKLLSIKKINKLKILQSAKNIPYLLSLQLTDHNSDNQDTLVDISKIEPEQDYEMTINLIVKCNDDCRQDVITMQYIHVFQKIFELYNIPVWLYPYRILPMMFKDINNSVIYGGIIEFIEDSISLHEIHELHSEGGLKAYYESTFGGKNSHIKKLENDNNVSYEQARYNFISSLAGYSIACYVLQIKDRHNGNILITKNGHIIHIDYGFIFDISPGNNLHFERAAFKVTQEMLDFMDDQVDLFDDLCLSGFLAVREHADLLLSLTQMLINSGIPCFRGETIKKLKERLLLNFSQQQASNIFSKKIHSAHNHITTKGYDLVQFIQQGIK

Row | Structure (SMILES) | IC50 [1] [nM] | IC50 [2] [nM]
1 | CCOC(=O)OC(C)OC(=O)c1cc(N(C)C(=O)c2ccn3ncc(-c4ccc(C(N)=O)cc4)c3c2)ccc1Cl (racemic) [WO2022079616, Example 1.14] | > 1000 | 550
2 | CN(C(=O)c1ccn2ncc(-c3ccc(C(N)=O)cc3)c2c1)c1ccc(Cl)c(C(=O)OCC2CCCO2)c1 (racemic) [WO2022079616, Example 1.15] |  | < 100
3 | CN(C(=O)c1ccn2ncc(-c3ccc(C(N)=O)cc3)c2c1)c1ccc(Cl)c(C(=O)OC(C)(C)C)c1 [WO2022079616, Example 1.02] |  | < 100
4 | CN(C(=O)c1ccn2ncc(-c3ccc(C(N)=O)cc3)c2c1)c1ccc(Cl)c(C(=O)O)c1 [WO2022079616, Example 1.03] |  | < 100
5 | CSCCOC(=O)c1cc(N(C)C(=O)c2ccn3ncc(-c4ccc(C(N)=O)cc4)c3c2)ccc1Cl [WO2022079616, Example 1.04] |  | < 100
6 | CC(C)COC(=O)c1cc(N(C)C(=O)c2ccn3ncc(-c4ccc(C(N)=O)cc4)c3c2)ccc1Cl [WO2022079616, Example 1.05] |  | < 100
7 | COC(=O)COC(=O)c1cc(N(C)C(=O)c2ccn3ncc(-c4ccc(C(N)=O)cc4)c3c2)ccc1Cl [WO2022079616, Example 1.06] |  | < 100
8 | CN(C(=O)c1ccn2ncc(-c3ccc(C(N)=O)cc3)c2c1)c1ccc(Cl)c(C(=O)OCCN2CCOCC2)c1 [WO2022079616, Example 1.08] | > 1000 | < 100
9 | CCOC(=O)c1cc(N(C)C(=O)c2ccn3ncc(-c4ccc(C(N)=O)cc4)c3c2)ccc1Cl [WO2022079616, Example 1.09] |  | < 100
10 | CN(C(=O)c1ccn2ncc(-c3ccc(C(N)=O)cc3)c2c1)c1ccc(Cl)c(C(=O)OCC(F)(F)F)c1 [WO2022079616, Example 1.10] |  | < 100
11 | COCCOC(=O)c1cc(N(C)C(=O)c2ccn3ncc(-c4ccc(C(N)=O)cc4)c3c2)ccc1Cl [WO2022079616, Example 1.11] |  | < 100
12 | CN(C)C(=O)COC(=O)c1cc(N(C)C(=O)c2ccn3ncc(-c4ccc(C(N)=O)cc4)c3c2)ccc1Cl [WO2022079616, Example 1.12] |  | < 100
13 | CC(C)OC(=O)c1cc(N(C)C(=O)c2ccn3ncc(-c4ccc(C(N)=O)cc4)c3c2)ccc1Cl [WO2022079616, Example 1.13] |  | < 100
14 | CNC(=O)c1ccc(-c2cnn3ccc(C(=O)N(C)c4ccc(Cl)c(C(=O)OC)c4)cc23)cc1 [WO2022079616, Example 1.16] | 550 | < 100
15 | CNC(=O)c1ccc(-c2cnn3ccc(C(=O)N(C)c4ccc(Cl)c(C(=O)OC(C)(C)C)c4)cc23)cc1 [WO2022079616, Example 1.17] |  | < 100
16 | CNC(=O)c1ccc(-c2cnn3ccc(C(=O)N(C)c4ccc(Cl)c(C(=O)O)c4)cc23)cc1 [WO2022079616, Example 1.18] | 550 | < 100
17 | CNC(=O)c1ccc(-c2cnn3ccc(C(=O)N(C)c4ccc(Cl)c(C(=O)OCCN5CCOCC5)c4)cc23)cc1 [WO2022079616, Example 1.19] | 550 | < 100
18 | COC(=O)c1cc(N(C)C(=O)c2ccn3ncc(-c4ccc(C(N)=O)cc4C)c3c2)ccc1Cl [WO2022079616, Example 1.21] | > 1000 | < 100
19 | CNC(=O)c1ccc(-c2cnn3ccc(C(=O)N(C)c4ccc(Cl)c(C(=O)OC)c4)cc23)cc1C [WO2022079616, Example 1.22] | > 1000 | 550
20 | COC(=O)c1cc(NC(=O)c2ccn3ncc(-c4ccc(C(N)=O)cc4)c3c2)ccc1Cl [WO2022079616, Example 1.23] | > 1000 | > 1000
21 | CNC(=O)c1ccc(-c2cnn3ccc(C(=O)Nc4ccc(Cl)c(C(=O)OC)c4)cc23)cc1 [WO2022079616, Example 1.24] | > 1000 | > 1000
22 | COC(=O)c1cc(N(C)C(=O)c2ccn3ncc(-c4ccc(C(N)=O)cc4)c3c2)ccc1OC(F)(F)F [WO2022079616, Example 1.25] | > 1000 | < 100
23 | CNC(=O)c1ccc(-c2cnn3ccc(C(=O)N(C)c4ccc(OC(F)(F)F)c(C(=O)OC)c4)cc23)cc1 [WO2022079616, Example 1.26] |  | < 100
24 | COC(=O)c1cc(N(C)C(=O)c2ccn3ncc(-c4ccc(C(N)=O)cc4)c3c2)ccc1C#N [WO2022079616, Example 1.27] | > 1000 | 550
25 | CNC(=O)c1ccc(-c2cnc3cnc(C(=O)N(C)c4ccc(Cl)c(C(=O)OC)c4)cn23)cc1 [WO2022079616, Example 2.1] | > 1000 | < 100
26 | CNC(=O)c1ccc(-c2cnn3cnc(C(=O)N(C)c4ccc(Cl)c(C(=O)OC)c4)cc23)cc1 [WO2022079616, Example 3.1] | > 1000 | < 100
27 | COC(=O)c1cc(Cl)ccc1N(C)C(=O)c1ccn2ncc(-c3ccc(C(N)=O)cc3)c2c1 [WO2022079616, Example 4.1] | 550 | < 100

— BindingDB's records for patent WO2022079616 (NOVARTIS AG, 2022)
